Where “and” joins values, the source holds several entries; their conditions need not be identical. Equal values may be shown once.
Test system: Bacillus anthracis
Type: cell-based

Cc1cc(Cl)ccc1-c1cc(C(O)(C(F)(F)F)C(F)(F)F)sc1-c1ccc(Cl)cc1CO [DNM94A, 2-(5-(4-chloro-2-(hydroxymethyl)phenyl)-4-(4-chloro-2-methylphenyl)thiophen-2-yl)-1,1,1,3,3,3-hexafluoropropan-2-ol]
MIC: 1 µg·mL
MIC50: 1 µg·mL
MIC90: 1 µg·mL

Cc1cc(Cl)ccc1-c1sc(C(O)(C(F)(F)F)C(F)(F)F)cc1-c1ccc(Cl)cc1CO [DNM95A, 2-(4-(4-chloro-2-(hydroxymethyl)phenyl)-5-(4-chloro-2-methylphenyl)thiophen-2-yl)-1,1,1,3,3,3-hexafluoropropan-2-ol]
MIC: 1 µg·mL and 0.5 µg·mL
MIC50: 1 µg·mL
MIC90: 1 µg·mL

colistin [reference compound]
MIC50: GT64 μg ml
MIC90: GT64 μg ml
